Experiments:
[1] = tested on: 60 cancerous cell lines; assay: NCI 60-cell screen; assay type: cell-based
Description: (§1) TIR-199 activity in inhibiting cancer cell growth was tested in a National Cancer Institute (“NCI”) 60-cell screen in triplicate (see FIGS. 3-14).
(§2) The NCI 60-cell screens were initially tested with 10 μM dose of TIR-199. […] Due to the initial results being so promising, a full dose-response study was performed in triplicate with the NCI cell lines.

[2] = tested on: OVCAR-5; assay: NCI 60-cell screen dose-response study, OVCAR-5; assay type: cell-based; conditions: Homo sapiens, dose-response study in triplicate, most sensitive cell line
Description: as §1, §2

[3] = tested on: NCI-H226 lung cancer line; assay: NCI 60-cell screen dose-response study, NCI-H226; assay type: cell-based
Description: as §1, §2

[4] = tested on: RXF 393 renal cancer; assay: NCI 60-cell screen dose-response study, RXF 393; assay type: cell-based
Description: as §1, §2

[5] = tested on: TK-10 renal cancer; assay: NCI 60-cell screen dose-response study, TK-10; assay type: cell-based
Description: as §1, §2

[6] = tested on: HCC-2998 colon cancer; assay: NCI 60-cell screen dose-response study, HCC-2998; assay type: cell-based
Description: as §1, §2

[7] = tested on: PC3 prostate cancer; assay: NCI 60-cell screen dose-response study, PC3; assay type: cell-based
Description: as §1, §2

[8] = tested on: BT-549 breast cancer; assay: NCI 60-cell screen dose-response study, BT-549; assay type: cell-based
Description: as §1, §2

[9] = tested on: cancerous cell lines; assay: Confirmatory in vitro cell-based screens; conditions: confirmatory in-vitro experiments in various laboratories
[10] = tested on: multiple myeloma cell lines; assay: Studies with multiple myeloma cell lines; assay type: cell-based

SMILES: CCCCCCCCCCCCNC(=O)N[C@H](C(=O)N[C@H]1/C=C/CCNC(=O)/C=C/[C@H](C)NC1=O)C(C)C [TIR-199]
- growth suppression and/or apoptosis induction in dose response study ([1]; 60 cancerous cell lines, varying log10 amounts (FIG. 3)): suppressed the growth and/or induced apoptosis in every cancerous cell line
- suppression of cancer cell growth ([1]; initial single dose, 10 μM): effectively suppressed cancer cell growth universally across the cell lines
- effectiveness on kidney cancer activity ([1]; kidney (renal) cancer lines): surprisingly potent
- IC50 [2]: 10 nM
- potency against cell line [3]: Particular potency
- sensitivity of cell line [4]: particularly sensitive
- sensitivity of cell line [5]: particularly sensitive
- sensitivity of cell line [6]: particularly sensitive
- sensitivity of cell line [7]: particularly sensitive
- sensitivity of cell line [8]: particularly sensitive
- potency against cancerous cell lines [9]: low nanomolar potency
- potency compared with bortezomib [10]: nearly as potent as the FDA approved proteasome inhibitor, bortezomib

From patent publication US9399627B2, “Substituted macrocyclic compounds having proteasome inhibitory activity” (THE REGENTS OF THE UNIVERSITY OF CALIFORNIA, priority 2012, dated 2016)
